Data reported in PubChem BioAssay (NCI).
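Tested at 5 concentrations; 48 h exposure; 96-well plates; endpoints linearly interpolated, else capped at highest concentration. TGI denotes the concentration required for complete inhibition of growth.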

tested on: SNB-75 CNS; assay: inhibition of tumour cell growth, NCI panel, 48 h

Structure (SMILES) | TGI [µM]
O=[N+]([O-])c1ccc(-c2nn3c(C45CC6CC(CC(C6)C4)C5)nnc3s2)c(Cl)c1 | > 100
O=[N+]([O-])c1cccc(Nc2nc(Cl)nc(Cl)n2)c1 | > 100
CCOC(=O)C(=CNc1ccc(F)c(F)c1)C(=O)OCC | > 100
COc1ccc(-c2nc(-c3cnccn3)n(C3OC(CO)C(O)C3O)n2)cc1 (configuration not stated) | > 10
CCCc1nc2c(n1CC)C(=O)c1ccccc1C2=O | > 100
C1CCCN(NC2=NCCO2)CC1 | > 100
O=C1NCN(c2ccccc2)C12CCN(CC1COc3ccccc3O1)CC2 (configuration not stated) | 71.4
O=C1OC([C@H](O)c2cccnc2)c2ccccc21 (some centres not stated) | > 10
CO/C(=N\N=C\c1ccc(Cl)c(Cl)c1)c1ccncc1 | > 10
COC(=O)/C=C(\C)CCC1SC1(C)C (configuration not stated) | > 100
C=C1C2=C(CCCC2)C(=O)OC12CCCCC2 | > 100
COC(=O)C(=O)C(C(=O)C(=O)Nc1ccc(C)cc1C)c1nc2ccc(Cl)cc2[nH]c1=O (configuration not stated) | > 100
Cc1ccc(S(=O)(=O)N/N=C2/CCC3(O)CC2(C)CCC2[C@H]3CC2(C)C)cc1 (some centres not stated) | 87.3
CC1=CCC(C(C)(C)NC(=O)c2ccccc2)C/C1=N/O (configuration not stated) | > 100
O=[N+]([O-])c1cccc2nccc(NCCN3CCOCC3)c12 | 47.2
CCCCCCCCCCCCOCC1(COCCCCCCCCCCCC)COC(c2ccc(N)cc2)OC1 | > 100
CCSC1=N/C(=C\c2ccco2)C(=O)N1 | > 100
CCOC(=O)CCC(NC(=O)c1ccc(NC(OC)c2nc3cc(C(F)(F)F)ccc3nc2-c2ccccc2)cc1)C(=O)OCC (configuration not stated) | 36.5
CCCCOC/N=C(/N)NC#N | > 100
COc1ccc2[nH]c3c(c2c1)[C@H]1CCC(C(C)(C)C)C[C@H]1[C@H]1C(=O)N(c2ccccc2)C(=O)[C@@H]31 (some centres not stated) | 14.6

tested on: SR leukemia; assay: inhibition of tumour cell growth, NCI panel, 48 h

Structure (SMILES) | TGI [µM]
C=C1C(=O)O[C@H]2C1C[C@H](O)[C@@]1(C)OC1CC[C@@]1(C)O[C@H]21 (some centres not stated) | 40.5
CCOC(=O)C1=C(OC(OCC)C(CC)[Se]c2ccccc2)CCC1 (configuration not stated) | 83.4
Cc1ccc(-c2cc(-c3ccccc3)c(C#N)c(=O)[nH]2)cc1 | > 100
O=[N+]([O-])c1ccc(-c2nn3c(C45CC6CC(CC(C6)C4)C5)nnc3s2)c(Cl)c1 | > 100
O=[N+]([O-])c1cccc(Nc2nc(Cl)nc(Cl)n2)c1 | > 100
CCOC(=O)C(=CNc1ccc(F)c(F)c1)C(=O)OCC | > 100
COc1ccc(-c2nc(-c3cnccn3)n(C3OC(CO)C(O)C3O)n2)cc1 (configuration not stated) | > 10
CCCc1nc2c(n1CC)C(=O)c1ccccc1C2=O | > 100
C1CCCN(NC2=NCCO2)CC1 | > 100
O=C1NCN(c2ccccc2)C12CCN(CC1COc3ccccc3O1)CC2 (configuration not stated) | > 100
O=C1OC([C@H](O)c2cccnc2)c2ccccc21 (some centres not stated) | > 10
CO/C(=N\N=C\c1ccc(Cl)c(Cl)c1)c1ccncc1 | > 10
C=C1C2=C(CCCC2)C(=O)OC12CCCCC2 | > 100
Cc1ccc(S(=O)(=O)N/N=C2/CCC3(O)CC2(C)CCC2[C@H]3CC2(C)C)cc1 (some centres not stated) | > 100
Cc1ccc(C(=O)Oc2ccccc2)cc1N=NN(C)C | > 100
O=[N+]([O-])c1cccc2nccc(NCCN3CCOCC3)c12 | > 31.4
CCCCCCCCCCCCOCC1(COCCCCCCCCCCCC)COC(c2ccc(N)cc2)OC1 | > 100
CCSC1=N/C(=C\c2ccco2)C(=O)N1 | > 100
CCOC(=O)CCC(NC(=O)c1ccc(NC(OC)c2nc3cc(C(F)(F)F)ccc3nc2-c2ccccc2)cc1)C(=O)OCC (configuration not stated) | > 100
CCCCOC/N=C(/N)NC#N | 63.1
NC(=O)[N+](=CC(=S)Nc1ccccc1Cl)C(N)=O | > 100

tested on: SW-620 colon; assay: inhibition of tumour cell growth, NCI panel, 48 h

Structure (SMILES) | TGI [µM]
C=C1C(=O)O[C@H]2C1C[C@H](O)[C@@]1(C)OC1CC[C@@]1(C)O[C@H]21 (some centres not stated) | 33.2
CCCc1cc(OC(=O)c2c(O)cc(OC)cc2CCC)cc(O)c1C(=O)O | > 100
Cc1ccc(-c2cc(-c3ccccc3)c(C#N)c(=O)[nH]2)cc1 | > 100
O=[N+]([O-])c1ccc(-c2nn3c(C45CC6CC(CC(C6)C4)C5)nnc3s2)c(Cl)c1 | > 100
O=[N+]([O-])c1cccc(Nc2nc(Cl)nc(Cl)n2)c1 | > 100
O=C1Oc2ccccc2C(=O)/C1=C/N1C(=O)CNC1=S | > 100
CCOC(=O)C(=CNc1ccc(F)c(F)c1)C(=O)OCC | > 100
COc1ccc(-c2nc(-c3cnccn3)n(C3OC(CO)C(O)C3O)n2)cc1 (configuration not stated) | > 10
CCCc1nc2c(n1CC)C(=O)c1ccccc1C2=O | > 100
C1CCCN(NC2=NCCO2)CC1 | > 100
O=C1NCN(c2ccccc2)C12CCN(CC1COc3ccccc3O1)CC2 (configuration not stated) | > 100
O=C1OC([C@H](O)c2cccnc2)c2ccccc21 (some centres not stated) | > 10
CO/C(=N\N=C\c1ccc(Cl)c(Cl)c1)c1ccncc1 | > 10
COC(=O)/C=C(\C)CCC1SC1(C)C (configuration not stated) | > 100
C=C1C2=C(CCCC2)C(=O)OC12CCCCC2 | > 100
COC(=O)C(=O)C(C(=O)C(=O)Nc1ccc(C)cc1C)c1nc2ccc(Cl)cc2[nH]c1=O (configuration not stated) | > 100
Cc1ccc(S(=O)(=O)N/N=C2/CCC3(O)CC2(C)CCC2[C@H]3CC2(C)C)cc1 (some centres not stated) | > 100
Cc1ccc(C(=O)Oc2ccccc2)cc1N=NN(C)C | > 100
CC1=CCC(C(C)(C)NC(=O)c2ccccc2)C/C1=N/O (configuration not stated) | > 100
O=[N+]([O-])c1cccc2nccc(NCCN3CCOCC3)c12 | 33.7
CCCCCCCCCCCCOCC1(COCCCCCCCCCCCC)COC(c2ccc(N)cc2)OC1 | > 100
CCSC1=N/C(=C\c2ccco2)C(=O)N1 | > 100
CCOC(=O)CCC(NC(=O)c1ccc(NC(OC)c2nc3cc(C(F)(F)F)ccc3nc2-c2ccccc2)cc1)C(=O)OCC (configuration not stated) | 20.7
CCCCOC/N=C(/N)NC#N | 34.3
COc1ccc2[nH]c3c(c2c1)[C@H]1CCC(C(C)(C)C)C[C@H]1[C@H]1C(=O)N(c2ccccc2)C(=O)[C@@H]31 (some centres not stated) | > 100
NC(=O)[N+](=CC(=S)Nc1ccccc1Cl)C(N)=O | > 100

tested on: TK-10 renal; assay: inhibition of tumour cell growth, NCI panel, 48 h

Structure (SMILES) | TGI [µM]
C=C1C(=O)O[C@H]2C1C[C@H](O)[C@@]1(C)OC1CC[C@@]1(C)O[C@H]21 (some centres not stated) | 36.5
CCOC(=O)C1=C(OC(OCC)C(CC)[Se]c2ccccc2)CCC1 (configuration not stated) | > 100
CCCc1cc(OC(=O)c2c(O)cc(OC)cc2CCC)cc(O)c1C(=O)O | > 100
Cc1ccc(-c2cc(-c3ccccc3)c(C#N)c(=O)[nH]2)cc1 | > 100
O=[N+]([O-])c1ccc(-c2nn3c(C45CC6CC(CC(C6)C4)C5)nnc3s2)c(Cl)c1 | > 100
O=C1Oc2ccccc2C(=O)/C1=C/N1C(=O)CNC1=S | > 100
CCOC(=O)C(=CNc1ccc(F)c(F)c1)C(=O)OCC | > 100
COc1ccc(-c2nc(-c3cnccn3)n(C3OC(CO)C(O)C3O)n2)cc1 (configuration not stated) | > 10
CCCc1nc2c(n1CC)C(=O)c1ccccc1C2=O | > 100
C1CCCN(NC2=NCCO2)CC1 | > 100
O=C1NCN(c2ccccc2)C12CCN(CC1COc3ccccc3O1)CC2 (configuration not stated) | > 100
O=C1OC([C@H](O)c2cccnc2)c2ccccc21 (some centres not stated) | > 10
CO/C(=N\N=C\c1ccc(Cl)c(Cl)c1)c1ccncc1 | > 10
COC(=O)/C=C(\C)CCC1SC1(C)C (configuration not stated) | > 100
C=C1C2=C(CCCC2)C(=O)OC12CCCCC2 | > 100
COC(=O)C(=O)C(C(=O)C(=O)Nc1ccc(C)cc1C)c1nc2ccc(Cl)cc2[nH]c1=O (configuration not stated) | > 100
Cc1ccc(S(=O)(=O)N/N=C2/CCC3(O)CC2(C)CCC2[C@H]3CC2(C)C)cc1 (some centres not stated) | > 100
Cc1ccc(C(=O)Oc2ccccc2)cc1N=NN(C)C | > 100
CC1=CCC(C(C)(C)NC(=O)c2ccccc2)C/C1=N/O (configuration not stated) | > 100
O=[N+]([O-])c1cccc2nccc(NCCN3CCOCC3)c12 | > 48.4
CCCCCCCCCCCCOCC1(COCCCCCCCCCCCC)COC(c2ccc(N)cc2)OC1 | > 100
CCSC1=N/C(=C\c2ccco2)C(=O)N1 | > 100
CCOC(=O)CCC(NC(=O)c1ccc(NC(OC)c2nc3cc(C(F)(F)F)ccc3nc2-c2ccccc2)cc1)C(=O)OCC (configuration not stated) | 38.4
CCCCOC/N=C(/N)NC#N | > 100
COc1ccc2[nH]c3c(c2c1)[C@H]1CCC(C(C)(C)C)C[C@H]1[C@H]1C(=O)N(c2ccccc2)C(=O)[C@@H]31 (some centres not stated) | > 74.1
NC(=O)[N+](=CC(=S)Nc1ccccc1Cl)C(N)=O | > 100

tested on: UACC-257 melanoma; assay: inhibition of tumour cell growth, NCI panel, 48 h

Structure (SMILES) | TGI [µM]
C=C1C(=O)O[C@H]2C1C[C@H](O)[C@@]1(C)OC1CC[C@@]1(C)O[C@H]21 (some centres not stated) | 37.8
CCOC(=O)C1=C(OC(OCC)C(CC)[Se]c2ccccc2)CCC1 (configuration not stated) | 77.4
CCCc1cc(OC(=O)c2c(O)cc(OC)cc2CCC)cc(O)c1C(=O)O | 56.2
Cc1ccc(-c2cc(-c3ccccc3)c(C#N)c(=O)[nH]2)cc1 | > 100
O=[N+]([O-])c1cccc(Nc2nc(Cl)nc(Cl)n2)c1 | > 100
O=C1Oc2ccccc2C(=O)/C1=C/N1C(=O)CNC1=S | > 100
CCOC(=O)C(=CNc1ccc(F)c(F)c1)C(=O)OCC | > 100
COc1ccc(-c2nc(-c3cnccn3)n(C3OC(CO)C(O)C3O)n2)cc1 (configuration not stated) | > 10
CCCc1nc2c(n1CC)C(=O)c1ccccc1C2=O | 45.6
C1CCCN(NC2=NCCO2)CC1 | > 100
O=C1NCN(c2ccccc2)C12CCN(CC1COc3ccccc3O1)CC2 (configuration not stated) | > 100
O=C1OC([C@H](O)c2cccnc2)c2ccccc21 (some centres not stated) | > 10
COC(=O)/C=C(\C)CCC1SC1(C)C (configuration not stated) | > 100
C=C1C2=C(CCCC2)C(=O)OC12CCCCC2 | > 100
COC(=O)C(=O)C(C(=O)C(=O)Nc1ccc(C)cc1C)c1nc2ccc(Cl)cc2[nH]c1=O (configuration not stated) | > 100
Cc1ccc(S(=O)(=O)N/N=C2/CCC3(O)CC2(C)CCC2[C@H]3CC2(C)C)cc1 (some centres not stated) | > 100
Cc1ccc(C(=O)Oc2ccccc2)cc1N=NN(C)C | > 100
CC1=CCC(C(C)(C)NC(=O)c2ccccc2)C/C1=N/O (configuration not stated) | > 100
O=[N+]([O-])c1cccc2nccc(NCCN3CCOCC3)c12 | 29
CCCCCCCCCCCCOCC1(COCCCCCCCCCCCC)COC(c2ccc(N)cc2)OC1 | > 100
CCOC(=O)CCC(NC(=O)c1ccc(NC(OC)c2nc3cc(C(F)(F)F)ccc3nc2-c2ccccc2)cc1)C(=O)OCC (configuration not stated) | 32.2
CCCCOC/N=C(/N)NC#N | > 100
COc1ccc2[nH]c3c(c2c1)[C@H]1CCC(C(C)(C)C)C[C@H]1[C@H]1C(=O)N(c2ccccc2)C(=O)[C@@H]31 (some centres not stated) | > 80.6
NC(=O)[N+](=CC(=S)Nc1ccccc1Cl)C(N)=O | > 100
